Data published in patent US20240207422A1, “NERVE TARGETING PEPTIDE CONJUGATES AND METHODS OF USE” (Alume Biosciences, Inc., priority 2022, published 2024).

System: excised human nerve tissue
Test: Phage display selection on excised human nerve tissue (Nerve2, Nerve3), NextGen sequence counts
Type: binding
Conditions: unique sequence count (relative enrichment)
Protocol: Several m13 phage libraries were constructed expressing randomized variants of a parent peptide (QVPWEEPYYVVKKS-SGGL; SEQ ID NO: 576). In particular, the first 14 amino acids of the parent peptide were randomized using degenerate oligonucleotide synthesis to obtain a diverse set of peptides with a mutation rate of about 50% per residue.
To accomplish this, synthesis was carried out by the XXK codon design approach, where X is any base and K is G or T. To bias synthesis towards the parent sequence, synthesis was carried out at each X position with a mixture of about 70%-85% of the parent nucleotide and 15-30% of the remaining 3 nucleotides. The resulting molecules were inserted into fADL-1e (Antibody Design Laboratories), which is a type 3 phage display vector having a cloning site on the N-terminal side of the full-length gene III protein. The fusion proteins are directed to the periplasm by the PelB leader peptide, which is inserted in the vector […].
Collectively, the phage display libraries used in the screens comprised about 600 million peptides, with sequencing analysis confirming a mutation rate of about 50% per residue.
Phage libraries were independently processed, as follows, with five biological samples: two independent samples of excised human nerve tissue, one sample of a human nerve extract, and two independent samples of human muscle tissue, as follows:
Excised Human Nerve Tissue: For each of the two independent samples, phage were processed through multiple cycles of selection, with representative phage being isolated and sequenced after each selection cycle. Specifically, for selection using human nerve tissue, a sample of […] tissue (2 mm by 2 mm) was washed prior to mixing and incubation with a phage library. After incubation, the mixture (containing mostly intact nerves with phage particles that had variable affinity for nerves) was centrifuged and the nerve pellet washed multiple times with PBS to remove phage with little or no affinity for nerve tissue. The pellet was homogenized and plated for titering and reamplification. Phage that were bound at each round were sequenced. NextGen sequencing of pools after 2, 3 and 4 rounds of selection were used to isolate candidate sequences that were further analyzed using bioinformatics.
NextGen sequencing of pools after 2, 3 and 4 rounds of selection were used to isolate candidate sequences from each of the five samples. These five data sets were then analyzed as described in the next section.
Peptide and vector sequences were translated starting at the first start codon in the nucleotide sequence. […] Trimmed peptides with identical sequences were combined and quantified according to their frequency (count).
Following processing, an R script was written to merge the unique peptide sequences (with counts 6 or greater) from the 5 different data sets to analyze the overlap between nerve and muscle binding activity.
For the single Nerve2, Nerve3, and Plated Nerve2 (pn2) subsets, the number of counts for each group was set at a threshold giving rise to at least 100 peptides. […] As highlighted in yellow in FIG. 1B, the representative group also included 6 unique peptides overlapping between nerve2 and nerve3, 200 unique peptides overlapping between nerve2 and plated nerve2 (at least 60 counts), 4 unique peptides overlapping between nerve3 and plated nerve2. Finally, as highlighted in green in FIG. 1B, the representative group also included […] common to the nerve2, nerve3, and plated nerve2 sets.

[1] = peptides overlapping between Nerve2 and Plated Nerve2
[2] = peptides common to Nerve2, Nerve3 and Plated Nerve 2 sets

Substance | Count [1] | Count (Nerve2 only) | further results
81 (RVAIDELYLIAHKS) [compound 81] | 147 |  | 
115 (QLPGEEPTYVGSNS) [compound 115] | 109 |  | 
98 (QNPWQKPYTVMKTS) [compound 98] | 123 |  | 
238 (KFTTQDSYYFGTQT) [compound 238] | 60 |  | 
323 (KLQWQDPDYVVKNS) [compound 323] |  | 10 | 
104 (RVTQGSPVYGENNA) [compound 104] | 114 |  | 
20 (QYAWEEPYYLEKKL) [compound 20] |  |  | Count [2]: 140
179 (LIPSEERSYAVINT) [compound 179] | 75 |  | 
230 (HIPFAEHDGVVPIS) [compound 230] | 63 |  | 
121 (HYQSVKSYSVQKKI) [compound 121] | 105 |  | 
333 (QKPTGASYYGTKPS) [compound 333] |  | 10 | 
433 (QASSEAPSYPVVKS) [compound 433] |  |  | Count (Nerve3 only): 95
130 (QSLSEEPQYVVTPS) [compound 130] | 98 |  | 
126 (HVPSEEPYKLDEQS) [compound 126] | 102 |  | 
241 (HDASGVSYYDRRES) [compound 241] |  | 21 | 
318 (HVQWEGPYYDVKKS) [compound 318] |  | 10 | 
428 (QIPLEEMYYVVRTY) [compound 428] |  |  | Count (Nerve3 only): 103
369 (QFPLYDPYEVMPKS) [compound 369] |  |  | Count (Nerve3 only): 310
390 (HISGEDPYFILQNS) [compound 390] |  |  | Count (Nerve3 only): 212
150 (EDVLHNAYHVETQF) [compound 150] | 85 |  | 
178 (HVVRHYPPHFVHKS) [compound 178] | 75 |  | 
89 (QVTSEEHYFAVKKF) [compound 89] | 136 |  | 
326 (LASWDEPSSVLRES) [compound 326] |  | 10 | 
154 (QMASKEPNYPVKNS) [compound 154] | 82 |  | 
67 (HITGGVPYPVVRDS) [compound 67] | 185 |  | 
105 (QIPMEETYSLRKMS) [compound 105] | 113 |  | 

Substance | Count [1] | Count (Nerve2 only) | further results
7 (QLPSEQPCCVVKKY) [compound 7] |  |  | Count [2]: 329
254 (NVLSEQPGYVMEYL) [compound 254] |  | 14 | 
287 (HLSQYEPYDPVDKS) [compound 287] |  | 11 | 
272 (HVSSEAPYYVLNKS) [compound 272] |  | 12 | 
84 (QCPSEQPNYVCKIF) [compound 84] | 140 |  | 
292 (KFSLVHPEYYGKET) [compound 292] |  | 11 | 
182 (AVAWERPYYVVNHS) [compound 182] | 74 |  | 
383 (DVPFEHSYYGEQQY) [compound 383] |  |  | Count (Nerve3 only): 237
267 (QVPLGAPFYAVRKS) [compound 267] |  | 13 | 
69 (HVTYDEQKYFVKKS) [compound 69] | 179 |  | 
8 (QDPWVTRYYIVKKS) [compound 8] |  |  | Count [2]: 304
258 (HFAWEEVFHVKKNF) [compound 258] |  | 13 | 
422 (AVQRAKPYYAVQNS) [compound 422] |  |  | Count (Nerve3 only): 109
365 (HVVWESSHFVVIDS) [compound 365] |  |  | Count (Nerve3 only): 329
27 (QDPCVWPYNGVKKC) [compound 27] |  |  | Count [2]: 79
125 (SVPGEDPSQFGKTP) [compound 125] | 103 |  | 
63 (QIPWGEAYQAEKIT) [compound 63] | 191 |  | 
184 (HFAGQEHLHFVEIS) [compound 184] | 74 |  | 
393 (HINWDKRYAVVITY) [compound 393] |  |  | Count (Nerve3 only): 197
296 (QHPMDPTYHVVIKA) [compound 296] |  | 11 | 
331 (QIQWQGSYNDLNKS) [compound 331] |  | 10 | 
138 (QLPSGEPYSFVKES) [compound 138] | 93 |  | 
447 (SAREQGTFYFVNNS) [compound 447] |  |  | Count (Nerve3 only): 80
163 (QIESGEPYHDQKHP) [compound 163] | 79 |  | 
293 (NLPGVEQYNLPNSS) [compound 293] |  | 11 | 
219 (QTSWAGPHDRVTKA) [compound 219] | 65 |  | 

Substance | Count [1] | Count (Nerve2 only) | further results
401 (RVYWIDPYYIVNES) [compound 401] |  |  | Count (Nerve3 only): 174
95 (DHPWDVRHYAHKKS) [compound 95] | 126 |  | 
297 (QILSEEPYYRVDMP) [compound 297] |  | 11 | 
432 (AYLSEQLNYVMKNS) [compound 432] |  |  | Count (Nerve3 only): 98
263 (QFPGSELTVSVIQV) [compound 263] |  | 13 | 
16 (HLPSDQPLSVTKIS) [compound 16] |  |  | Count [2]: 173
370 (HFRWDEPYYIANKA) [compound 370] |  |  | Count (Nerve3 only): 300
59 (HVSGGQWVHGQKNS) [compound 59] | 200 |  | 
409 (LFAGENGYFTVRQF) [compound 409] |  |  | Count (Nerve3 only): 139
17 (GFLGEEPYHFLAKR) [compound 17] |  |  | Count [2]: 167
255 (QLPWTNPFHVVNKY) [compound 255] |  | 14 | 
226 (QFAWVQPYYFAKKS) [compound 226] | 64 |  | 
330 (QFASSHTDYVADKS) [compound 330] |  | 10 | 
147 (NVTFEQSSYVVTSP) [compound 147] | 87 |  | 
97 (QFARTAPYYVQTEY) [compound 97] | 125 |  | 
136 (HGRSVESYDLVNKR) [compound 136] | 94 |  | 
310 (HHPLQEPYYVVEKS) [compound 310] |  | 10 | 
99 (HLSFEEPLYGVKKS) [compound 99] | 122 |  | 
58 (EVPGGVPYYPMKKF) [compound 58] | 201 |  | 
159 (HVLGEEPYYFVQHV) [compound 159] | 80 |  | 
170 (HVPRDEPQSFVHRS) [compound 170] | 77 |  | 
286 (HHPGVGPFHVVKRS) [compound 286] |  | 11 | 
119 (HVTYTEASVYKRTF) [compound 119] | 107 |  | 
352 (QMPWEVPYYVVKRS) [compound 352] |  |  | Count (Nerve3 only): 548
222 (YVKTVNPDSVLKIS) [compound 222] | 65 |  | 
392 (LLAWDEQDYFLRKT) [compound 392] |  |  | Count (Nerve3 only): 199

Substance | Count [1] | Count (Nerve2 only) | further results
189 (QDYWAKPSYIVKHS) [compound 189] | 72 |  | 
212 (QIRWEDASYVEKTS) [compound 212] | 66 |  | 
199 (HDSLDLHYYAMHES) [compound 199] | 69 |  | 
242 (HVGLPEPHHVMIHS) [compound 242] |  | 20 | 
309 (HFQSEEPYHIPHKH) [compound 309] |  | 10 | 
427 (FVARNEPFYVVGTS) [compound 427] |  |  | Count (Nerve3 only): 104
76 (HVPRVEPYNVVTNY) [compound 76] | 158 |  | 
306 (ESALKEPHQVLKHS) [compound 306] |  | 10 | 
149 (HVSGTKPYHLVKKS) [compound 149] | 86 |  | 
332 (QISSEEPTSLLDRP) [compound 332] |  | 10 | 
239 (NVTSREPYHLLEKS) [compound 239] | 60 |  | 
446 (QVPAREPNHIVKKS) [compound 446] |  |  | Count (Nerve3 only): 80
285 (DVLGIERYYAVKDP) [compound 285] |  | 11 | 
169 (HLPWEGPEYLGKKS) [compound 169] | 77 |  | 
284 (DRPVEVPSDFVNNS) [compound 284] |  | 11 | 
311 (HMPGREPYYVVTTS) [compound 311] |  | 10 | 
315 (HVPRVDHLYVETKS) [compound 315] |  | 10 | 
54 (QIANKEPHTYVENS) [compound 54] | 213 |  | 
334 (QLAFDGPSPILTTS) [compound 334] |  | 10 | 
15 (HVAGGERYFSVKES) [compound 15] |  |  | Count [2]: 185
244 (QIPSQEPYHRFKES) [compound 244] |  | 19 | 
113 (NVLSEEPSSRDANV) [compound 113] | 110 |  | 
80 (HVPWAGRHYVAKHS) [compound 80] | 149 |  | 
265 (QSPWDEPYYGVLMA) [compound 265] |  | 13 | 
195 (SLPMEERYYAVRTA) [compound 195] | 71 |  | 
